In patent US20240417411A1, “COMPOUNDS AND METHODS FOR TREATMENT OF VIRAL INFECTIONS” (priority 2023, published 2024):

What was measured:
[1] = system: SARS-CoV2-NLuc; experiment: microbe, parasite or virus in culture; format: cell-based, SARS Coronavirus 2; settings: Severe acute respiratory syndrome coronavirus 2, 48 h, read-out: SARS-CoV2 EC50 (nM)
[2] = system: RSV-Luc5; experiment: microbe, parasite or virus in culture; format: cell-based; settings: human respiratory syncytial virus, NHBE, 72 h, read-out: RSV NHBE EC50 (nM)
[3] = in vitro; format: cell-based; settings: human
Procedure: Example C: CC50 MT4 Cytotoxicity of the compounds was determined in uninfected cells using the cell viability reagent in a similar fashion as described before for other cell types ([…] et al., Antimicrob Agents Chemother. 2008,52(2):655-65). […] Cells were cultured for 4-5 days at 37° C. Following the incubation, the cells were allowed to equilibrate to 25° C., and cell viability was determined by adding Cell-Titer Glo viability reagent. The mixture was incubated for 10 min, and the luminescence signal was quantified using an Envision plate reader. Untreated cell and cells treated at 2 μM puromycin (Sigma, St. Louis, MO) serve as 100% and 0% cell viability control, respectively. The percent of cell viability was calculated for each tested compound concentration relative to the 0% and 100% controls and the CC50 value was determined by non-linear regression as a compound concentration reducing the cell viability by 50%.

[4] = in vitro; format: in vitro ADME; settings: human, s9, pH 7.4
Procedure: Example D: GI S9 Stability […] The S9 metabolic reactions were initiated by the addition of the substrates to the S9 reaction mixture to a final concentration of 2 μM. […] Aliquots ([…]) of the diluted supernatant were analyzed on a Thermo Q-Exactive mass spectrometer as described below. Example F: Liquid Chromatography/Mass Spectroscopy Methods for S9 and Plasma Stability Quantification of test compounds, Reference Compound A (S9 stability assay nucleoside metabolite), and controls was performed by analyte/internal standard peak area ratio (PAR) values measured on a Thermo Q-Exactive mass spectrometer coupled to a Dionex UltiMate 3000 HPLC with a Leap Technologies HTC PAL autosampler. […] Mobile phase A consisted of 0.1% (v/v) formic acid in water. Mobile phase B consisted of 0.1% (v/v) formic acid in acetonitrile. Elution of analytes was achieved by a series of linear gradients of acetonitrile in water containing 0.10% (v/v) formic acid. The mass spectrometer was calibrated on a weekly basis and mass tolerance of 5 ppm was used.

[5] = in vitro; settings: human, plasma
[6] = system: Caco-2 cells (clone C2BBe1); settings: human, Caco-2

| SMILES | EC50 [1] [nM] | EC50 [2] [nM] | CC50 [3] [µM] | half-life at 2 μM [4] [min] | half-life at 2 μM [5] [min] | Caco2 A to B [6] | Caco2 B to A [6] |
| --- | --- | --- | --- | --- | --- | --- | --- |
| COC(=O)OC[C@H]1O[C@@](C#N)(c2ccc3c(N)ncnn23)[C@@H]2OC(=O)CC(C)(C)CC(=O)O[C@@H]21 [Compound C15, ((7aR,8R,10R,10aR)-10-(4-aminopyrrolo[2,1-f][1,2,4]triazin-7-yl)-10-cyano-4,4-dimethyl-2,6-dioxooctahydro-2H-furo[3,4-b][1,4]dioxonin-8-yl)methyl methyl carbonate] | > 50000 | > 50000 | > 50 | 6.22 | 16.1 | – | – |
| CCOC(=O)[C@@H]1[C@H](OC(=O)OC[C@H]2O[C@@](C#N)(c3ccc4c(N)ncnn34)[C@@H]3OC(=O)CCCC(=O)O[C@@H]32)CCN1C [Compound C32, ethyl (2S,3R)-3-(((((7aR,8R,10R,10aR)-10-(4-aminopyrrolo[2,1-f][1,2,4]triazin-7-yl)-10-cyano-2,6-dioxooctahydro-2H-furo[3,4-b][1,4]dioxonin-8-yl)methoxy)carbonyl)oxy)-1-methylpyrrolidine-2-carboxylate] | 4970 | 7650 | > 50 | 0.566 | 30.9 | – | – |
| CCOC(=O)[C@@H]1[C@H](OC(=O)OC[C@H]2O[C@@](C#N)(c3ccc4c(N)ncnn34)[C@@H]3OC(=O)CC(C)(C)CC(=O)O[C@@H]32)CCN1C [Compound C49, ethyl (2S,3R)-3-(((((7aR,8R,10R,10aR)-10-(4-aminopyrrolo[2,1-f][1,2,4]triazin-7-yl)-10-cyano-4,4-dimethyl-2,6-dioxooctahydro-2H-furo[3,4-b][1,4]dioxonin-8-yl)methoxy)carbonyl)oxy)-1-methylpyrrolidine-2-carboxylate] | > 50000 | > 50000 | > 50 | 7.81 | 42.5 | – | – |
| CC(C)[C@H](N)C(=O)OC[C@H]1O[C@@](C#N)(c2ccc3c(N)ncnn23)[C@@H]2OC(=O)CCCC(=O)O[C@@H]21 [Compound C59, ((7aR,8R,10R,10aR)-10-(4-aminopyrrolo[2,1-f][1,2,4]triazin-7-yl)-10-cyano-2,6-dioxooctahydro-2H-furo[3,4-b][1,4]dioxonin-8-yl)methyl L-valinate] | 6830 | 5970 | > 50 | 0.586 | 18.5 | – | – |
| CC(C)COC(=O)OC[C@H]1O[C@@](C#N)(c2ccc3c(N)ncnn23)[C@@H]2OC(=O)CCCC(=O)O[C@@H]21 [Compound C18, ((7aR,8R,10R,10aR)-10-(4-aminopyrrolo[2,1-f][1,2,4]triazin-7-yl)-10-cyano-2,6-dioxooctahydro-2H-furo[3,4-b][1,4]dioxonin-8-yl)methyl isobutyl carbonate] | 1780 | 8490 | > 50 | 0.724 | 7.57 | – | – |
| CC(C)(OC(=O)OC[C@H]1O[C@@](C#N)(c2ccc3c(N)ncnn23)[C@@H]2OC(=O)CCCC(=O)O[C@@H]21)C(F)F [Compound C25, ((7aR,8R,10R,10aR)-10-(4-aminopyrrolo[2,1-f][1,2,4]triazin-7-yl)-10-cyano-2,6-dioxooctahydro-2H-furo[3,4-b][1,4]dioxonin-8-yl)methyl (1,1-difluoro-2-methylpropan-2-yl) carbonate] | 34300 | 6460 | > 50 | 0.559 | 11.9 | – | – |
| CC1(C)CC(=O)O[C@H]2[C@@H](OC(=O)C1)[C@](C#N)(c1ccc3c(N)ncnn13)O[C@@H]2COC(=O)OC1CCCC1 [Compound C37, ((7aR,8R,10R,10aR)-10-(4-aminopyrrolo[2,1-f][1,2,4]triazin-7-yl)-10-cyano-4,4-dimethyl-2,6-dioxooctahydro-2H-furo[3,4-b][1,4]dioxonin-8-yl)methyl cyclopentyl carbonate] | > 50000 | > 50000 | > 50 | 5.15 | 300 | – | – |
| CC1(C)CC(=O)O[C@H]2[C@@H](OC(=O)C1)[C@](C#N)(c1ccc3c(N)ncnn13)O[C@@H]2CO [Compound C11, (7aR,8R,10R,10aR)-8-(4-aminopyrrolo[2,1-f][1,2,4]triazin-7-yl)-10-(hydroxymethyl)-4,4-dimethyl-2,6-dioxooctahydro-2H-furo[3,4-b][1,4]dioxonine-8-carbonitrile] | > 50000 | > 50000 | > 50 | 24.3 | 414 | – | – |
| CC(C)[C@H](NC(=O)OC(C)(C)C)C(=O)OC[C@H]1O[C@@](C#N)(c2ccc3c(N)ncnn23)[C@@H]2OC(=O)CCCC(=O)O[C@@H]21 [Compound C58, ((7aR,8R,10R,10aR)-10-(4-aminopyrrolo[2,1-f][1,2,4]triazin-7-yl)-10-cyano-2,6-dioxooctahydro-2H-furo[3,4-b][1,4]dioxonin-8-yl)methyl (tert-butoxycarbonyl)-L-valinate] | 5120 | 2840 | > 50 | 0.577 | 26.4 | – | – |
| CCOC(=O)C(C)(C)OC(=O)OC[C@H]1O[C@@](C#N)(c2ccc3c(N)ncnn23)[C@@H]2OC(=O)CCCC(=O)O[C@@H]21 [Compound C26, ethyl 2-(((((7aR,8R,10R,10aR)-10-(4-aminopyrrolo[2,1-f][1,2,4]triazin-7-yl)-10-cyano-2,6-dioxooctahydro-2H-furo[3,4-b][1,4]dioxonin-8-yl)methoxy)carbonyl)oxy)-2-methylpropanoate] | 39900 | > 50000 | > 50 | 0.618 | 18.3 | – | – |
| CC(C)COC(=O)OC[C@H]1O[C@@](C#N)(c2ccc3c(N)ncnn23)[C@@H]2OC(=O)CC(C)(C)CC(=O)O[C@@H]21 [Compound C35, ((7aR,8R,10R,10aR)-10-(4-aminopyrrolo[2,1-f][1,2,4]triazin-7-yl)-10-cyano-4,4-dimethyl-2,6-dioxooctahydro-2H-furo[3,4-b][1,4]dioxonin-8-yl)methyl isobutyl carbonate] | > 50000 | > 50000 | > 50 | 0.609 | 73.6 | – | – |
| CC(C)(OC(=O)OC[C@H]1O[C@@](C#N)(c2ccc3c(N)ncnn23)[C@@H]2OC(=O)CCCC(=O)O[C@@H]21)c1ccncc1 [Compound C17, ((7aR,8R,10R,10aR)-10-(4-aminopyrrolo[2,1-f][1,2,4]triazin-7-yl)-10-cyano-2,6-dioxooctahydro-2H-furo[3,4-b][1,4]dioxonin-8-yl)methyl (2-(pyridin-4-yl)propan-2-yl) carbonate] | 29900 | > 50000 | > 50 | – | 31.1 | 2.97 | 15.86 |
| CC(C)(C)COC(=O)OC[C@H]1O[C@@](C#N)(c2ccc3c(N)ncnn23)[C@@H]2OC(=O)CCCC(=O)O[C@@H]21 [Compound C29, ((7aR,8R,10R,10aR)-10-(4-aminopyrrolo[2,1-f][1,2,4]triazin-7-yl)-10-cyano-2,6-dioxooctahydro-2H-furo[3,4-b][1,4]dioxonin-8-yl)methyl neopentyl carbonate] | 2220 | 4660 | > 50 | 0.587 | 12.1 | – | – |
| N#C[C@@]1(c2ccc3c(N)ncnn23)O[C@H](COC(=O)OCCN2CCOCC2)[C@H]2OC(=O)CCCC(=O)O[C@H]21 [Compound C19, ((7aR,8R,10R,10aR)-10-(4-aminopyrrolo[2,1-f][1,2,4]triazin-7-yl)-10-cyano-2,6-dioxooctahydro-2H-furo[3,4-b][1,4]dioxonin-8-yl)methyl (2-morpholinoethyl) carbonate] | 4310 | 8620 | > 50 | 0.552 | 90.3 | – | – |
| CC1(C)CC(=O)O[C@H]2[C@@H](OC(=O)C1)[C@](C#N)(c1ccc3c(N)ncnn13)O[C@@H]2COC(=O)OC(CF)CF [Compound C44, ((7aR,8R,10R,10aR)-10-(4-aminopyrrolo[2,1-f][1,2,4]triazin-7-yl)-10-cyano-4,4-dimethyl-2,6-dioxooctahydro-2H-furo[3,4-b][1,4]dioxonin-8-yl)methyl (1,3-difluoropropan-2-yl) carbonate] | > 50000 | > 50000 | > 50 | 1.22 | 133 | – | – |
